Experimental data from ChEMBL document CHEMBL1132210, “Ligands for the tyrosine kinase p56lck SH2 domain: discovery of potent dipeptide derivatives with monocharged, nonhydrolyzable phosphate replacements” (J Med Chem, 1999).
Non-standard residues stand in square brackets, D forms with d. Residues, ends and D or L forms follow the SMILES beside them. Phe(4-CH2COOH) = N[C@@H](Cc1ccc(CC(=O)O)cc1)C(=O)O

biological target: Tyrosine-protein kinase Lck (Homo sapiens, UniProt P06239); assay: Binding affinity towards p56 Lck tyrosine kinase SH2 domain was determined by biological assay
Sequence (P06239 whole entry, the tested form may be a part): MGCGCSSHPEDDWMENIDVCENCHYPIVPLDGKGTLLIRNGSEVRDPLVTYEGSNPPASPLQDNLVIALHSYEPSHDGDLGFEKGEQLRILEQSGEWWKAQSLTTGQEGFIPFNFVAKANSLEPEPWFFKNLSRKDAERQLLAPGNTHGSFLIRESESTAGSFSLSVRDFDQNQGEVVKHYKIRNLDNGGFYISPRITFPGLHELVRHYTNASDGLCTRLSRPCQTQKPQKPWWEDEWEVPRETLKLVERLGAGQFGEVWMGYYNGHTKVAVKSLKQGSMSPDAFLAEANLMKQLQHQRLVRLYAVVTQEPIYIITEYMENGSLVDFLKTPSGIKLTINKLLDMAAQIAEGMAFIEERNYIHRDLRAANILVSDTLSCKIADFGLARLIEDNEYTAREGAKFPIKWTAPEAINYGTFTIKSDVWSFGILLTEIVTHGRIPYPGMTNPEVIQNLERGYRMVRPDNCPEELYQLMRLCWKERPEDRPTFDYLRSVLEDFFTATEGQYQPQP

Kd [µM]	SMILES
3	COc1ccc(CNC(=O)[C@H](CCC(=O)O)NC(=O)[C@H](Cc2ccc(NC(=O)C(=O)O)cc2)NC(=O)Cc2ccc3ccccc3c2)cc1
13	COc1ccc(CNC(=O)[C@H](CCC(=O)O)NC(=O)[C@H](Cc2ccc(NC(=O)C(=O)O)cc2)NC(=O)CCc2ccccc2)cc1
2	COc1ccc(CNC(=O)[C@H](CCC(=O)O)NC(=O)[C@H](Cc2ccc(C(O)C(=O)O)cc2)NC(=O)Cc2cccc3ccccc23)cc1 (stereo partly specified)
166	COc1ccc(CNC(=O)[C@H](CCC(=O)O)NC(=O)[C@H](Cc2ccc(C(F)(F)C(=O)O)cc2)NC(C)=O)cc1
25	COc1ccc(CNC(=O)[C@H](CCC(=O)O)NC(=O)[C@H](Cc2ccc(CS(=O)(=O)O)cc2)NC(C)=O)cc1
65	COc1ccc(CNC(=O)[C@H](CCC(=O)O)NC(=O)[C@H](Cc2ccc(C(=O)C(=O)O)cc2)NC(C)=O)cc1
184	COc1ccc(CNC(=O)[C@H](CCC(=O)O)NC(=O)[C@H](Cc2ccc(CCC(=O)O)cc2)NC(C)=O)cc1
17	COc1ccc(CNC(=O)[C@H](CCC(=O)O)NC(=O)[C@H](Cc2ccc(NC(=O)C(=O)O)cc2)NC(=O)Cc2ccccc2)cc1
15	COc1ccc(CNC(=O)[C@H](CCC(=O)O)NC(=O)[C@H](Cc2ccc(C(O)C(=O)O)cc2)NC(C)=O)cc1 (stereo partly specified)
32	COc1ccc(CNC(=O)[C@H](CCC(=O)O)NC(=O)[C@H](Cc2ccc(NC(=O)C(=O)O)cc2)NC(=O)c2ccccc2)cc1
50	COc1ccc(CNC(=O)[C@H](CCC(=O)O)NC(=O)[C@H](Cc2ccc(CC(=O)O)cc2)NC(C)=O)cc1
4	COc1ccc(CNC(=O)[C@H](CCC(=O)O)NC(=O)[C@H](Cc2ccc(CS(=O)(=O)O)cc2)NC(=O)Cc2cccc3ccccc23)cc1
5	COc1ccc(CNC(=O)[C@H](CCC(=O)O)NC(=O)[C@H](Cc2ccc(CC(=O)O)cc2)NC(=O)Cc2cccc3ccccc23)cc1
0.04	COc1ccc(CNC(=O)[C@H](CCC(=O)O)NC(=O)[C@H](Cc2ccc(OP(=O)(O)O)cc2)NC(=O)Cc2cccc3ccccc23)cc1
42	COc1ccc(CNC(=O)[C@H](CCC(=O)O)NC(=O)[C@H](Cc2ccc(NC(=O)C(=O)O)cc2)NC(C)=O)cc1
42	CC[C@H](C)[C@H](NC(=O)[C@H](CCC(=O)O)NC(=O)[C@H](CCC(=O)O)NC(=O)[C@H](Cc1ccc(CC(=O)O)cc1)NC(C)=O)C(=O)O (Ac-[Phe(4-CH2COOH)]EEI-OH)
